# Measurements taken from patent US9808496B2, “Use of a myrtle extract as an anti-biofilm agent against P. acnes” (PIERRE FABRE DERMO-COSMETIQUE, priority 2012, dated 2017).
# What was measured:
# Format in all cases: cell-based, Propionibacterium acnes
# [1] = test system: P. acnes CIP 53117T (eryS); test: Activity of the combination erythromycin/myrtle extract on P. acnes biofilm (24-well microplate); settings: erythromycin 1000 μg/ml alone, 24 h contact on 48 h biofilm, limit of detection 1.3 log
# Experimental: (§1) Myrtle extract is prepared according to example 2.
# (§2) • Four Propionibacterium acnes strains were selected: Two Erythromycin-Resistant Strains (ERY R) • Propionibacterium acnes CIP 110371 • clinical isolate R4 Two Erythromycin-Sensitive Strains (ERY S) • Propionibacterium acnes CIP 53117T • clinical isolate B872 Protocol
# (§3) A titrated suspension of P. acnes (about 10^6 CFU/ml), in minimal broth allowing no bacterial growth, was deposited in the wells of a 24-well microplate.
# (§4) The microplates are placed under anaerobic conditions at 37±2° C. for 48 h, the time established for biofilm to form.
# (§5) After 48 h, the supernatant of each well is discarded and then the wells are rinsed. Erythromycin and myrtle extract at various concentrations are added for a contact time of 24 h on the adhered cells (72 hours of adhesion in total).
# (§6) The erythromycin concentration selected is 1000 μg/ml.
# (§7) After 72 h of adhesion: • planktonic cells are counted • adhered (sessile) cells are counted after rinsing the well and then scraping in tryptone salt
# (§8) Controls were prepared in parallel (adhered+planktonic cells) • 72 h biofilm control (with the medium changed at 48 h) • myrtle control at various concentrations (added after 48 h/24 h of contact) • 1000 μg/ml erythromycin control (added at 48 h/24 h of contact) • myrtle extract control at the concentrations tested
# (§9) For all the wells in contact with erythromycin, 1 ml of each dilution is filtered on a membrane (Microfil®, Millipore) and then the filter is rinsed three times with 50 ml of sterile distilled water. The membranes are deposited on Columbia agar+5% sheep blood. The plates are incubated at 37±2° C. under anaerobic conditions. After 72 h to 96 h of incubation, the colony forming units (CFUs) are counted.
# (§10) For all the biofilm controls and the myrtle extract alone, 100 μl of each dilution is inoculated by streaking on Columbia agar+5% sheep blood. The plates are incubated at 37±2° C. under anaerobic conditions. After 72 h to 96 h of incubation, the CFUs are counted. Results
# (§11) This test consisted in evaluating the activity of erythromycin (1000 μg/ml) combined with myrtle extract, at concentrations of 0.03%, 0.001% and 0.0001%.
# (§12) The results are expressed in log of the population counted.
# P. acnes B872 (eryS) = test: as above; settings: erythromycin 1000 μg/ml alone, 24 h contact on 48 h biofilm
# Experimental: as §1, §2, §3, §4, §5, §6, §7, §8, §9, §10, §11, §12
# [2] = test system: P. acnes CIP 110371 (eryR); test: as above; settings: erythromycin 1000 μg/ml alone, 24 h contact on 48 h biofilm, limit of detection 1.3 log
# Experimental: as §1, §2, §3, §4, §5, §6, §7, §8, §9, §10, §11, §12
# P. acnes R4 (eryR) = test: as above; settings: erythromycin 1000 μg/ml alone, 24 h contact on 48 h biofilm
# Experimental: as §1, §2, §3, §4, §5, §6, §7, §8, §9, §10, §11, §12
# [3] = test system: P. acnes eryS strains and eryR strains; test: Erythromycin/myrtle extract on P. acnes biofilm, general conclusion over the strains
# Experimental: as §2, §3, §4, §5, §7
# [4] = test system: two erythromycin-resistant strains (ERY R); test: Bactericidal activity of erythromycin on isolated bacteria; settings: 1000 μg/ml
# Experimental: as §6
smiles,measurement,setting,value
"CC[C@H]1OC(=O)[C@H](C)[C@@H](O[C@H]2C[C@@](C)(OC)[C@@H](O)[C@H](C)O2)[C@H](C)[C@@H](O[C@@H]2O[C@H](C)C[C@H](N(C)C)[C@H]2O)[C@](C)(O)C[C@@H](C)C(=O)[C@H](C)[C@@H](O)[C@]1(C)O [Ery, erythromycin]","Adhered cells, Log (number of CFU/well)",[1]; untreated control 5.1,4.3 Log (number of CFU/well)
same,"Planktonic cells, Log (number of CFU/well)",[1]; untreated control 5.5,1.3 Log (number of CFU/well)
same,"Planktonic cells, Log (number of CFU/well)",P. acnes B872 (eryS); untreated control 4.0,1.3 Log (number of CFU/well)
same,"Adhered cells, Log (number of CFU/well)",P. acnes B872 (eryS); untreated control 4.4,4.0 Log (number of CFU/well)
same,"Planktonic cells, Log (number of CFU/well)",[2]; untreated control 5.0,4.2 Log (number of CFU/well)
same,"Adhered cells, Log (number of CFU/well)",[2]; untreated control 5.3,4.1 Log (number of CFU/well)
same,"Planktonic cells, Log (number of CFU/well)",P. acnes R4 (eryR); untreated control 3.7,3.5 Log (number of CFU/well)
same,"Adhered cells, Log (number of CFU/well)",P. acnes R4 (eryR); untreated control 4.5,3.5 Log (number of CFU/well)
same,Bactericidal activity of erythromycin alone,[3],high
same,Bactericidal activity,[4],did not have bactericidal activity
